As a reminder, the IC50 is the concentration at which inhibition is half-maximal.

SMILES strings stand for the structures.

We go through three compounds from patent US9957270B2, “Fused pyrimidine-based hydroxamate derivatives” (Agency for Science, Technology and Research, priority 2014, dated 2018).

In data set [1] the test system is Raji. In words: Anti-proliferative assay (cellular IC50), Raji. Particulars: Homo sapiens, read-out: In Vitro Cellular IC50 Raji.
Method: (§2) Cells were cultivated at 37° C., 5% CO2 in media containing 10% FBS and 2 mM glutamine Cells were routinely monitored with MycoAlert™ PLUS Mycoplasma Detection Kit (Lonza Walkersville, Inc.) to make sure they were mycoplasma free. Antibiotics (100 U/mL of penicillin and 100 μg/mL of streptomycin) were only added to the media used for compound dilution and cells in 96-well assay plates.
(§3) For a typical screening experiment, cells (100 μL/well) are inoculated into 96 well microtiter plates at plating densities ranging from 2,000 to 30,000 cells/well depending on the doubling time of individual cell lines and assay linearity. […] Suspension cells are treated with test compounds immediately after cell inoculation.
(§4) Test compounds are serially diluted (3-fold or 4-fold, 8-concentration) using the same media and added to the plates (15 to 25 μL/well). After 72 h of cultivation, the plates are assayed for cell cytotoxicity/viability by using the following two methods.
(§5) Cells in plates are fixed with cold trichloroacetic acid (TCA) (50% w/v in DI water, 1/4 volume of the medium in each well), and incubated at 4° C. for 1 h (adherent cells) or 2 h (suspension cells). The plates are washed 5 times (tap water×3, DI water×2) and air-dried. SRB solution 0.4% (w/v) in 1% acetic acid is added to each well (60 μL/well) and the plates are incubated at room temperature for 30 min, then washed with 1% acetic acid solution 4 times, and air-dried.
(§6) The plates are added CellTiter-Glo® Reagent (95 μL/well) and read the luminescence on a BioTek H4 reader per manufacture's protocol.
(§7) The raw data are processed using BioTek's Software Gen5 (v2.03.01) to generate inhibitory IC50 values.
In data set [2] the test system is HEL9217. As to the kind of experiment: Anti-proliferative assay (cellular IC50), HEL9217. Particulars: Homo sapiens, HEL 92.1.7, read-out: In Vitro Cellular IC50 HEL9217.
Method: as §2, §3, §4, §5, §6, §7
Data set [3] is described as follows: Microsomal stability, human liver microsomes. Particulars: human, microsomes, 0.75 h, 5 μM, pH 7.4. An outline of the steps:
(§1)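 Liver microsomes at 0.5 mg/mL protein incubated with compound for 30 min (mouse), 45 min (rat), or 30 or 45 min (human). Reaction stopped with ice-cold acetonitrile containing 0.3% formic acid; % parent remaining measured by LC-MS.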

Data set [4] is described as follows: Microsomal stability, mouse liver microsomes. Particulars: mouse, microsomes, 0.5 h, 5 μM, pH 7.4. The procedure: GIBIO pooled human liver microsomes (HLM) (Cat # HMMCPL), mouse liver microsomes (MLM) (Cat # BCMCPL), and rat liver microsomes (RLM) (Cat # RTMCPL) were purchased from Life Technologies. […] Samples are incubated for 30, 45, or 60 min. Reaction is terminated with ice-cold acetonitrile 0.3% formic acid. Samples are subsequently centrifuged at 4° C. for 15 min at 20,000×g. The supernatant is analysed by LC-MS.
Compound in vitro metabolic stability was assayed using liver microsomes (LM) at 0.5 mg/mL of proteins, incubated for 30 min (mouse, MLM), 45 min (rat, RLM), 30 or 45 min (human, HLM). % of remaining parent compound was measured using LC-MS.

Data set [5] is described as follows: Microsomal stability, rat liver microsomes. Particulars: rat, microsomes, 0.75 h, 5 μM, pH 7.4. Summed up:
as §1
(In general: Liver microsomes are a subcellular fraction often used to study metabolism.)

Data set [6] deals with histone 3 (Lys 9) and α-tubulin acetylation (HDACs) in PC-3 cells. As to the kind of experiment: Western blot, acetylation of histone 3 (Lys 9) and α-tubulin in PC-3 cells. In kind it is cell-based, human. Particulars: 24 h, 1 or 10 μM. How it is done:
Proteins in cell lysates are resolved by SDS-PAGE and transferred to PVDF and probed with appropriate primary and secondary antibodies. […] Representative Western blot images are shown in FIG. 15 and analyzed results are presented by FIGS. 17 to 20.
PC-3 cells were treated with test compounds at the following concentrations (all contain 0.1% DMSO) for 24 h at 37° C., and then processed according to section of Western Blot Analysis.
The graph represents results from two Western Blot analyses. […] Vehicle DMSO (0.1%) was used as blank control, and its acH3 level was normalized to 1. Y Axis is expressed as Mean±SD if applicable.
Vehicle DMSO (0.1%) as blank control, and its acetylation level was normalized to 1. Y Axis is expressed as Mean±SD if applicable.
For orientation: A western blot detects proteins with antibodies after separation by electrophoresis.

Data set [7] concerns PC-3 tumors. In words: Target modulation in PC-3 prostate cancer xenograft (histone H3 acetylation, Western blot). In kind it is in vivo, mouse. Particulars: BALB/c nude mice, oral, EX1 150 mg/kg, EX78 100 mg/kg. From the text:
Blood samples, tumors and other tissues were collected for PK/PD studies at the indicated time points (two mice each time point).
The lanes and the concentrations used were as follows: […]

The target in data set [8] is T1, PI3Kβ (Homo sapiens, UniProt P42338).
T1 construct: purchased SignalChem or BPS P28-10H / 40622
As to the kind of experiment: Kinase enzyme assay (ADP-Glo), PI3Kβ. In kind it is biochemical. Particulars: read-out: In Vitro Enzymatic IC50 PI3Kβ.

T1 sequence (P42338 whole entry): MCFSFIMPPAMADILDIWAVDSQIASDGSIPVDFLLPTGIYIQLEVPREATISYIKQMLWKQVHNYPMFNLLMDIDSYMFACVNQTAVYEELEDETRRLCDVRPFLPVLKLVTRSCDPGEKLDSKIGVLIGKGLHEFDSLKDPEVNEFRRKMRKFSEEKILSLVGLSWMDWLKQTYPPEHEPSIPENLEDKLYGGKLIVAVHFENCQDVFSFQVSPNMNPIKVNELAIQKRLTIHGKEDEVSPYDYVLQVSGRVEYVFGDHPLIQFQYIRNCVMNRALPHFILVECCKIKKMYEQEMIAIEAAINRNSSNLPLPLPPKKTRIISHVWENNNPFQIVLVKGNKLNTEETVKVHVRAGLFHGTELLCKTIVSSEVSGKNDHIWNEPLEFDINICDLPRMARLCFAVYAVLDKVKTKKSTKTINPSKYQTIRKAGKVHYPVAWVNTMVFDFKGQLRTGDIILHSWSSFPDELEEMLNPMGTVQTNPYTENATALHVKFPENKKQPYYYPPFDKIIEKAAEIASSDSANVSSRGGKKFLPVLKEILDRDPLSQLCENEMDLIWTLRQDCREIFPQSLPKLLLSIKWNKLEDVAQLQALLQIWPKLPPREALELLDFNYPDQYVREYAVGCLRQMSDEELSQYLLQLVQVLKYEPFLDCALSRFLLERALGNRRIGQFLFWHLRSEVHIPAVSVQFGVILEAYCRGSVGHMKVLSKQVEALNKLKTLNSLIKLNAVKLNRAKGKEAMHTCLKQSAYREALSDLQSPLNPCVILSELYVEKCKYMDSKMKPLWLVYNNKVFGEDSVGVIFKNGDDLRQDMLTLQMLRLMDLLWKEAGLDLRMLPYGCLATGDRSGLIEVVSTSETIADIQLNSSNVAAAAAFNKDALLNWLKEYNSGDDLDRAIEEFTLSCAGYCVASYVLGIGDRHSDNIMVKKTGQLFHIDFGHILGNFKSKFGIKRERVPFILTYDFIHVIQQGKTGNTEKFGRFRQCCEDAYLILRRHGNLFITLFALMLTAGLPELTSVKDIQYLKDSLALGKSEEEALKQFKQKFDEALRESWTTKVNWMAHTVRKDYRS
T1 sequence (P27986 whole entry partner): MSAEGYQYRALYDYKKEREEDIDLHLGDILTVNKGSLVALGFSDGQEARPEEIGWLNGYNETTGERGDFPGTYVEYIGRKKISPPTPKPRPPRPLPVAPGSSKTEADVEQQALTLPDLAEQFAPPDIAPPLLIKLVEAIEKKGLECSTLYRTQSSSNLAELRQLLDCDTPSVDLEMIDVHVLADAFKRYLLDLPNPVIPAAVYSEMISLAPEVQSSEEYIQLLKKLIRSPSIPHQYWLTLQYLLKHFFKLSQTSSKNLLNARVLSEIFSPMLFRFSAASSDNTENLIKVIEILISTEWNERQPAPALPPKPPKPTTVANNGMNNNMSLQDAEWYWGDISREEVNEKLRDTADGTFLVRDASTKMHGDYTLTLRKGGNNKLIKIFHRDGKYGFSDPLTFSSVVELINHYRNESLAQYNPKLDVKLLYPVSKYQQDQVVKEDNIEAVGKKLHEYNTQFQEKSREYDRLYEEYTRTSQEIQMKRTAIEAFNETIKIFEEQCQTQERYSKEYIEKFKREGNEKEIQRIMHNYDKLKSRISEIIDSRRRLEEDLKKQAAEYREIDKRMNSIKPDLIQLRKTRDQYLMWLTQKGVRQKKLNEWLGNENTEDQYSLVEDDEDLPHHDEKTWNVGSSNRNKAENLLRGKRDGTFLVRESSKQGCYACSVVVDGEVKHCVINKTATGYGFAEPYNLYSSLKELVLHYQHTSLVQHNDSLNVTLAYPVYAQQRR

In the case of `CS(=O)(=O)N1CCN(Cc2cc3nc(-c4cccc5[nH]ncc45)nc(N4CCOCC4)c3s2)CC1` [GDC-0941, reference compound], the IC50 in data set [1] and in data set [2] was 2000 to 10000 nM each time.

In the case of `CC(C)n1cnc2c(-c3cccc(OCCCC(=O)NO)c3)nc(N3CCOCC3)nc21` [compound 1], the “Microsomal Stability HLM, % of remaining parent compound” value in data set [3] was 101%. Moreover, in data set [4], the “Microsomal Stability MLM, % of remaining parent compound” value is on record as 96%. Moreover, in data set [5], the “Microsomal Stability RLM, % of remaining parent compound” value is listed as 70%. In addition, the “Hyperacetylation of histone 3 (Lys 9) and α-tubulin” value in data set [6] was “the hyperacetylation effect is dose-dependent”. In addition, in data set [7], the “Hyperacetylation of H3 in PC-3 tumors” value is recorded as “Hyperacetylation of H3 in PC-3 tumors was confirmed”. In addition, the concentration for half-maximal inhibition (IC50) in data set [1] and in data set [2] was 500 to 2000 nM throughout.

On to `CCn1c(CN(C)Cc2ccc(C(=O)NO)cc2)nc2c(N3CCOCC3)nc(-c3cnc(N)nc3)nc21` [compound 7], for which the IC50 in data set [8] was in the range of 10 to 100 nM.
